Data: article PMC3672105, “Identification and Enhancement of HLA-A2.1-Restricted CTL Epitopes in a New Human Cancer Antigen-POTE” (PLoS ONE, 2013)

What was measured:
HLA-A2 molecule = target: T1, HLA-A2 molecule (Homo sapiens, UniProt P04439, D140Y/D185E/D98H/E176V/E277Q/G131W/G231S/I119V/I121R/I166T/I218V/L300P/L318F/N151K/N90K/P208A/P217A/Q86G/Q94H/R138H/R169H/T345S); test: T2 binding assay; conditions: for HLA-A2 binder class in words: T2 binding assay; for FI0.5 (peptide concentration that increases HLA-A2.1 expression by 50% over no peptide control): BB7.2 staining, flow cytometry, triplicate; for FI0.5 lower (higher affinity) than that of the POTE 252 peptide: ratio to wild type POTE 252
T1 construct: endogenous in cells; host or cells: T2 cell line (TAP1/TAP2-deficient)
Description: Peptide binding capacity to the HLA-A2 molecule was measured by using the T2 cell line according to a protocol described previously, [22]. T2 cells (3 × 10^5 cells/well) were incubated overnight in 96-well plates with culture medium (1∶1 mixture of RPMI 1640/Eagle-Hank’s amino acid containing 2.5% fetal bovine serum, 100 U/ml penicillin, and 100 µg/ml streptomycin) with 10 µg/ml β2-microglobulin (Sigma) and different titrated concentrations of peptides (starting from 100 µM with 2-fold serial dilution) as shown in the figures to determine the concentration giving a 50% increase in binding (see below). Cells were washed once with cold HBSS containing 0.1% BSA and incubated for 30 min at 4°C with anti-HLA-A2.1 monoclonal antibody (clone BB7.2) (1∶40 dilution from hybridoma supernatant). After washing, cells were stained with FITC-labeled goat anti-mouse immunoglobulin (BD, San Jose, CA), and the level of HLA expression was measured by flow cytometry. HLA-A2 expression was quantified as fluorescence index (FI) according to the following formula: FI = (geometric mean fluorescence intensity with peptide - geometric mean fluorescence intensity without peptide)/geometric mean fluorescence intensity without peptide. Background fluorescence without BB7.2 was subtracted for each individual value. To compare the different peptides, FI0.5, the peptide concentration that increases HLA-A2.1 expression by 50% over no peptide control background, was calculated from the titration curve for each peptide. It should be noted that the FI0.5 provides a relative measure of peptide affinity or potency among peptides compared side by side, but cannot be taken as a thermodynamic affinity.

AAD transgenic mice = test: Ex vivo interferon-γ ELISPOT assay after peptide immunization; assay type: in vivo, mouse; conditions: for IFN-γ response (ELISPOT) after stimulation with the immunizing peptide: AAD mice immunized s.c. with 50 nmol peptide, boosted at 2 weeks, pooled splenocytes of 3 mice, targets pulsed with 1.0 µM (1000 nM) peptide; for cross-reactive IFN-γ response (ELISPOT) to wild type peptide: AAD mice immunized with enhanced peptide, stimulation with wild type peptide
Description: (§1) Cytokines were purchased from Peprotech (Rocky Hill, NJ). […] For all experiments, groups of three mice were used.
The numbers of IFN-γ secreting cells were determined by an ELISPOT kit (Mouse IFN-gamma ELISpot SixPak; R&D, Minneapolis, […]) or by a set of anti-mouse IFN-γ coating (AN18) and detecting (R4–6A2) monoclonal antibodies (Mabtech) according to the manufacturer’s instructions. Two weeks after the last immunization, spleen cells were plated on antibody-coated plates at 200,000, 100,000 and 50.000 cells/well and stimulated with 200,000 peptide-pulsed naïve spleen cells/well with indicated concentration of peptides for 2 hours. After incubation overnight at 37°C, the plates were washed and detecting antibody was added. An ELISPOT blue color module (R&D) was used for color development. The spots were read by an ELISPOT reader (AID). All samples were analyzed in triplicate.

[1] = system: C1R.AAD cells pulsed with peptides; test: 4-h 51Cr release CTL assay on peptide-pulsed targets after one week in vitro stimulation; assay type: cell-based, human; conditions: CTLs from immunized AAD mice after one week in vitro stimulation with cognate peptide (1.0 µM), targets pulsed with 1.0 µM peptide
Excerpt: as §1

HHD-2 mice = test: HLA-A2/peptide tetramer staining and TCR Vβ repertoire of CD8+ T cells; assay type: in vivo, mouse; conditions: HHD-2 mice immunized with the peptide; for tetramer-positive CD8+ T cells: HLA-A2/peptide tetramer staining, Figure 2C
Excerpt: as §1
Tetrameric MHC class I/peptide complexes obtained from the NIH Tetramer Facility were synthesized as described previously, [25]. Briefly, purified single-chain HLA-A2 molecules were synthesized by a prokaryotic expression system (pET; R&D Systems, Minneapolis, MN). The heavy chain was modified containing the Bir-A enzymatic biotinylation site. Single-chain heavy chain-β2-microglobulin and peptide were refolded by dilution into a redoxshuffling buffer system. The refolded product was biotinylated by Bir-A in the presence of […] (Avidity, Denver, CO). Streptavidin-Phycoerythrin conjugate (Jackson ImmunoResearch, West Grove, PA) was added in a 1∶4 molar ratio. Per-CP labeled anti-mouse CD8 antibody (BD Pharmingen) and TCR Vβ screening panel (BD Pharmingen) were used to detect the TCR repertoire of the CTLs.

[2] = predicted wild type peptides, Figure 1A, T2 cells overnight with peptide (from 100 µM, 2-fold dilutions) and 10 µg/ml β2-microglobulin
[3] = wild type and substituted peptides, Figure 1B-D, T2 cells overnight with peptide and 10 µg/ml β2-microglobulin

GLTPLLLGV [POTE 272–280] was tested, and the “HLA-A2 binder class in words” value (HLA-A2 molecule; Figure 1A) was “strongest binding affinity”, the “FI0.5 (peptide concentration that increases HLA-A2.1 expression by 50% over no peptide control)” value (HLA-A2 molecule; [2]) was 0.9 µM and the “IFN-γ response (ELISPOT) after stimulation with the immunizing peptide” value (from here on “IFN-γ response … with the immunizing peptide”) (AAD transgenic mice) was “induced significant IFN-γ responses”. The “CTL lysis of peptide-pulsed target cells” value [1] was “lysed target cells pulsed with POTE 272”.

KILEEIASV [POTE-553-7A] was tested, and the “FI0.5 (peptide concentration that increases HLA-A2.1 expression by 50% over no peptide control)” value (HLA-A2 molecule; [3]) was 0.2 µM.

For KILEEIESV [POTE 553–561], the “HLA-A2 binder class in words” value (HLA-A2 molecule; Figure 1A) was “intermediate binders”, the “FI0.5 (peptide concentration that increases HLA-A2.1 expression by 50% over no peptide control)” value (HLA-A2 molecule; [2]) was 5.6 µM and the “IFN-γ response … with the immunizing peptide” value (AAD transgenic mice) was “did not induce any significant IFN-γ responses”. For the same sequence, the “CTL lysis of peptide-pulsed target cells” value [1] was “not any significant detectable target cell lysis”.

In the case of KLAAKALLL [POTE 252-3A], the “FI0.5 (peptide concentration that increases HLA-A2.1 expression by 50% over no peptide control)” value (HLA-A2 molecule; [3]) is reported as 16.9 µM.

With KLLEEIESV [POTE 553-2L] the “FI0.5 (peptide concentration that increases HLA-A2.1 expression by 50% over no peptide control)” value (HLA-A2 molecule; [3]) was 0.1 µM, the “IFN-γ response … with the immunizing peptide” value (AAD transgenic mice) was “induced some level of IFN-γ responses only after stimulation with the same peptide” and the “cross-reactive IFN-γ response (ELISPOT) to wild type peptide” value (shortened to “cross-reactive IFN-γ response (ELISPOT)”) (AAD transgenic mice) was “no cross-reactive response to wild type peptide was detected”. For the same sequence, the “CTL lysis of peptide-pulsed target cells” value [1] was “did not lyse target cells pulsed with POTE 553-2L”.

In the case of KLMAKAALL [POTE 252-7A], the “FI0.5 (peptide concentration that increases HLA-A2.1 expression by 50% over no peptide control)” value (HLA-A2 molecule; [3]) is reported as 4 µM.

With KLMAKALLL [POTE 252–260] the “HLA-A2 binder class in words” value (HLA-A2 molecule; Figure 1A) was “intermediate binders”, the “FI0.5 (peptide concentration that increases HLA-A2.1 expression by 50% over no peptide control)” value (HLA-A2 molecule; [2]) was 1.6 µM and the “IFN-γ response … with the immunizing peptide” value (AAD transgenic mice) was “induced a significant number of IFN-γ spots”. The “tetramer-positive CD8+ T cells” value (HHD-2 mice) was 9.3% and the “CTL lysis of peptide-pulsed target cells” value [1] was “lysed target cells pulsed with the wild type POTE 252 as well as POTE 252-9V”.

KLMAKALLV [POTE 252-9V] was tested, and the “FI0.5 lower (higher affinity) than that of the POTE 252 peptide” value (HLA-A2 molecule) was ~2 fold, the “FI0.5 (peptide concentration that increases HLA-A2.1 expression by 50% over no peptide control)” value (HLA-A2 molecule; [3]) was 0.8 µM and the “IFN-γ response … with the immunizing peptide” value (AAD transgenic mice) was “induced a significant number of IFN-γ spots”. For the same sequence, the “cross-reactive IFN-γ response (ELISPOT)” value (AAD transgenic mice) was “cross-reactivity to both POTE 252 and POTE 252-9V”, the “tetramer-positive CD8+ T cells” value (HHD-2 mice) was 6.8% and the “CD8+tetramer+ T cells positive for Vβ10” value (HHD-2 mice; TCR Vβ screening panel, Figure 2D) was “about 80%”. For the same sequence, the “CTL lysis of peptide-pulsed target cells” value [1] was “lysed target cells pulsed with the wild type POTE 252 as well as POTE 252-9V”.

For LLAEQNVDV [POTE 323-3A], the “FI0.5 (peptide concentration that increases HLA-A2.1 expression by 50% over no peptide control)” value (HLA-A2 molecule; [3]) was 0.4 µM.

In the case of LLFEQNVDV [POTE 323-3F], the “FI0.5 better than the wild type peptide” value (HLA-A2 molecule; ratio to wild type POTE 323) is reported as “approximately 3 fold”, the “FI0.5 (peptide concentration that increases HLA-A2.1 expression by 50% over no peptide control)” value (HLA-A2 molecule; [3]) is reported as 0.09 µM and the “IFN-γ response … with the immunizing peptide” value (AAD transgenic mice) is reported as “induced significant IFN-γ spots”. For the same sequence, the “cross-reactive IFN-γ response (ELISPOT)” value (AAD transgenic mice) was “some degree of IFN-γ response was also detected” and the “CTL lysis of peptide-pulsed target cells” value [1] was “lysed target cells pulsed with the POTE 323-3F, as well as wild type POTE 323”.

With LLLEQNADV [POTE 323-7A] the “FI0.5 (peptide concentration that increases HLA-A2.1 expression by 50% over no peptide control)” value (HLA-A2 molecule; [3]) was 2.78 µM.

For LLLEQNVDV [POTE 323–331], the “HLA-A2 binder class in words” value (HLA-A2 molecule; Figure 1A) was “strongest binding affinity”, the “FI0.5 (peptide concentration that increases HLA-A2.1 expression by 50% over no peptide control)” value (HLA-A2 molecule; [2]) was 0.8 µM and the “IFN-γ response … with the immunizing peptide” value (AAD transgenic mice) was “only marginal IFN-γ responses”. For the same sequence, the “IFN-γ response over background level (ELISPOT)” value (AAD transgenic mice; AAD mice immunized with 50 nmol peptide, targets pulsed with 1000 nM peptide) was “less than 2 fold” and the “CTL lysis of peptide-pulsed target cells” value [1] was “failed to lyse target cells pulsed with POTE 323”.

With YILEEIESV [POTE 553-1Y] the “FI0.5 (peptide concentration that increases HLA-A2.1 expression by 50% over no peptide control)” value (HLA-A2 molecule; [3]) was 0.024 µM, the “IFN-γ response … with the immunizing peptide” value (AAD transgenic mice) was “induced some level of IFN-γ responses only after stimulation with the same peptide” and the “cross-reactive IFN-γ response (ELISPOT)” value (AAD transgenic mice) was “no cross-reactive response to wild type peptide was detected”. The “CTL lysis of peptide-pulsed target cells” value [1] was “lysed target cells pulsed with not only POTE 553-1Y, but also POTE 553 and POTE 553-2L peptides”.

YLLEQNVDV [POTE 323-1Y] was tested, and the “FI0.5 (peptide concentration that increases HLA-A2.1 expression by 50% over no peptide control)” value (HLA-A2 molecule; [3]) was 0.25 µM.

For YLMAKALLL [POTE 252-1Y], the “FI0.5 lower (higher affinity) than that of the POTE 252 peptide” value (HLA-A2 molecule) was ~2 fold, the “FI0.5 (peptide concentration that increases HLA-A2.1 expression by 50% over no peptide control)” value (HLA-A2 molecule; [3]) was 0.9 µM and the “IFN-γ response … with the immunizing peptide” value (AAD transgenic mice) was “no significant IFN-γ responses were detected”.
